The text below walks through data of patent publication US20220177911A1, “SYNTHETIC CIRCUIT FOR CELLULAR MULTISTABILITY” (California Institute of Technology, priority 2020, published 2022).

Assay [1] relates to monoclonal self-activation stable lines (42ZFR2AR39AR67A DNA-binding domain). Description: Inhibition of self-activation by competitive dimerization. In kind it is cell-based, Chinese hamster. The following applies: 100 nM AP1903 and 10 μM TMP. The source says: To test this, monoclonal cell lines with the self-activating circuits were selected, and then constructs expressing proteins were stably integrated with a different ZF DNA-binding domain and a matching or mismatching dimerization domain to generate a polyclonal cell population for each perturbation construct (Table 2 and Table 3) (See, “Additional Methods” below). […] Without being bound by any particular theory, this may be through non-specific mechanisms (FIG. 2D and FIG. 10B-FIG. 10C).
All tissue culture experiments were performed with Chinese hamster ovary K1 cells (CHO-K1, ATCC). […] Cells were harvested after 36 hours and cell fluorescence was measured by flow cytometry. […] After another 72 hours, cells were harvested and analyzed by flow cytometry. […] The inhibition strength was quantified as the reduction of self-activation cell fractions.
To determine whether competitive dimerization inhibits self-activation (FIG. 2D and FIG. 10B-FIG. 10C), plasmids (Table 2, construct MF72-MF80) expressing different transcription factor variants and a co-translational mCherry were stably integrated in these two monoclonal lines. After puromycin selection, cells were transferred into media containing 100 nM AP1903+10 μM TMP to permit self-activation, and measured by flow cytometry after another 72 hours. […]

Assay [2] deals with T1, homodimerization domain (Homo sapiens, UniProt P62942, F37V).
T1 construct: expressed in transfected cells; host or cells: CHO-K1
Description: Dissociation constant of homodimerization domains (parameter estimate). In kind it is binding. The following applies: media containing 100 nM AP1903; reasoned from reporter activation versus GCN4; read-out: apparent dissociation constant Kd of homodimerization. The protocol:
Finally, parameters related to protein dimerization were estimated. In some embodiments, the apparent dissociation constant Kd of FKBP homodimerization domain may depend on AP1903 concentrations. […] Based on this observation, it was reasoned that in media containing 100 nM AP1903, the apparent dissociation constant Kd≤10 nM. An estimate of Kd=10 nM=8000 molecules/cell was used in the model. For monomer association rate kon, an intermediate value in the range of diffusion-limited association rates of kon=4×10^5/(M·s)=1.8×10^−3 cell/(protein·hr) was used. These two values together produce a dimer dissociation rate koff=Kd×kon=[…].

Assay [3] has as its system reporter containing 18 bp homodimer binding sites driving the expression of Citrine. Nature of the assay: Transient co-transfection Citrine reporter assay of ZF transcription factors. The assay is classed as cell-based, Chinese hamster. The source says: To engineer ZF transcription factors, the ErbB2 ZF DNA-binding domain was fused to a GCN4 homodimerization domain and a VP48 transcriptional activation domain to create the synthetic transcription factor, termed ZF-GCN4-AD (FIG. 2A). A transcription factor (ZF-AD) lacking GCN4 was used as a monomeric control. To assay their transcriptional activity, a reporter was constructed containing 18 bp homodimer binding sites driving the expression of Citrine. Each transcription factor was then co-transfected together with the reporter and an mTagBFP2 co-transfection marker into Chinese hamster ovary K1 (CHO-K1) cells, and analyzed for Citrine expression by flow cytometry 36 hours later (FIG. 2A and FIG. 9A) (See, “Additional Methods” below). […] Arginine-to-alanine mutations were introduced at key positions in the ZF known to weaken DNA binding, which decreased monomeric activity without reducing homodimer activity (FIG. 2A, red square). […]
All tissue culture experiments were performed with Chinese hamster ovary K1 cells (CHO-K1, ATCC). […] Cells were harvested after 36 hours and cell fluorescence was measured by flow cytometry. […] After another 72 hours, cells were harvested and analyzed by flow cytometry. […] The inhibition strength was quantified as the reduction of self-activation cell fractions. […]
(A reporter such as luciferase makes a cellular process visible.)

Another assay relates to MultiFate-2.3 cells. Nature of the assay: Flow cytometry analysis of MultiFate-2.3 state-switching. The assay is classed as cell-based, Chinese hamster. The source says:
FIG. 21A-FIG. 21C depict non-limiting exemplary data related to raw flow cytometry analysis of MultiFate-2.3 state-switching. Each plot represents one of three biological replicates at the indicated time point (cf. FIG. 4B). Initial A-only, B-only and A+B cells (rows) were sorted under the media conditions indicated on the top. Each 2-dimensional flow cytometry plot was divided at mCherry=104 and mCitrine=104 into four quadrants, representing four states. For each plot, the percentage of cells in each of the four states is labeled on the corresponding corner. Timelines above each set of plots represent the time and indicated inducer conditions. Note that since the response elements for 4-OHT or Dox are adjacent to the transcription factor homodimer binding sites (Table 2), the addition of 4-OHT or Dox increases A or B expression up to, but not substantially beyond, the level produced by transcription factor self-activation. […] Additional Dox activation further increased the B expression only by another 1.4 fold (Day 6 versus Day 18).
Finally, it was asked to what extent cells could be deliberately switched from one state to another through transient perturbations. MultiFate-2.3, in which the A and B genes can be independently activated by 4-hydroxy-tamoxifen (4-OHT) and Dox, respectively, was used to address this question. In this cell-line, the response elements for the inducers are adjacent to the homodimer binding sites. Therefore, the addition of inducers increases A or B expression up to, but not substantially beyond, the level produced by self-activation (FIG. 2C and FIG. 21A-FIG. 21C). In the bistable regime, transient induction of either transcription factor switched cells into the corresponding state, where they remained in the absence of further induction (FIG. 8A, FIG. 4B, left, and FIG. 21A). […]
For flow cytometry experiments characterizing state stability (FIG. 3C and FIG. 5B) and state-switching dynamics (FIG. 4A-FIG. 4B), cells from each state were sorted into media containing corresponding inducers. […] The remaining 96% cells were suspended in the flow cytometry buffer and analyzed by flow cytometry. […]
To characterize long-term state stability of MultiFate cells in different media conditions (FIG. 3A-FIG. 5D), 4% of cells were trypsinized and transferred into fresh media with the same condition every three days. The remaining cells were resuspended in flow cytometry buffer and analyzed by a flow cytometer. The resulting two-dimensional (or three-dimensional for MultiFate-3) fluorescence intensity plots were then divided into four quadrants (or eight octants) by an empirical threshold in each of the two (or three) fluorescence channels. […]

The test system of assay [4] is self-activation construct in Tet3G-expressing CHO-K1 cells. Nature of the assay: ZF transcription factor self-activation assay (normalized mCitrine+ fraction). In kind it is cell-based, Chinese hamster. The following applies: 24 hours Dox, then Dox withdrawn; 72 hours in AP1903 and/or TMP.
Description: To validate this capability, a self-activation construct was designed (FIG. 2C), in which a transcription factor with a FKBP dimerization domain is expressed from a promoter containing its own 18 bp homodimer binding sites (Table 2). This construct allowed independent Dox-inducible activation through upstream Tet3G (Takara Bio) binding sites. […] Finally, a destabilized mCitrine was incorporated for dynamic readout of construct expression. This construct was integrated into Tet3G-expressing CHO-K1 cells, generating a stable polyclonal population for further analysis (Table 3) (See, “Additional Methods” below).
For experiments characterizing ZF transcription factor self-activation (FIG. 2C and FIG. 10A), each self-activation construct was stably integrated (Table 2) into polyclonal Tet3G-expressing CHO-K1 cells via PiggyBac (Systems Biosciences) to make a polyclonal cell line (Table 3). […] After another 72 hours, cells were harvested and analyzed by flow cytometry.
Each self-activation construct (Table 2, construct MF63-MF69) was stably integrated into Tet3G-expressing CHO-K1 cells. […] After another 72 hours, cells were harvested and analyzed by flow cytometry. […]
The target of assay [5] is homodimerization domain. The following applies: cited from earlier work.

T1 sequence (P62942 2-108 F37V): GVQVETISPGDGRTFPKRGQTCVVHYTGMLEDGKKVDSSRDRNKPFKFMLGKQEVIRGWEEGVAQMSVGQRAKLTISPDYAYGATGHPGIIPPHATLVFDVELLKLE

In the case of “FKBP: FKBP12F36V homodimerization domain (SEQ ID NO: 5)”, the inhibition of self-activation entry in assay [1] (FKBP-42ZFR2AR39AR67A-VP48-DHFR self-activation cells) was “can partially inhibit self-activation”. In addition, in the assay with homodimerization domain [2], the Kd is not above 0.01 µM.

As to “ZF-GCN4-AD: ErbB2 ZF DNA-binding domain fused to GCN4 homodimerization domain and VP48 activation domain”, the “reporter activation by ZF transcription factor” value in assay [3] (ErbB2 ZF, VP48 activation domain, wild-type (WT) ZF, flow cytometry 36 hours after transfection) is “strongly activated the reporter”.

Consider “NLS-FKBP12F36V-37ZFR2AR11AR39AR67A-VP16-NLS-DHFR [transcription factor B]”, for which, in the assay with MultiFate-2.3 cells, the “increase in B expression by transcription factor self-activation (Day 18 versus Day 0)” value was 48 fold.

For the compound `C[C@H]1c2cccc(O)c2C(=O)C2=C(O)[C@]3(O)C(=O)C(C(N)=O)=C(O)[C@@H](N(C)C)[C@@H]3[C@@H](O)[C@@H]21` [Dox], the “additional increase in B expression by inducer compared with self-activation (Day 6 versus Day 18)” value with MultiFate-2.3 cells (Dox 500 ng/ml) was determined as 1.4 fold.

Regarding “NLS-FKBP12F36V-BCRZFR39A-VP16-NLS-DHFR [transcription factor A]”, the “increase in A expression by transcription factor self-activation (mCherry median Day 18 / Day 0)” value in the assay on MultiFate-2.3 cells (mean of three replicates) turned out to be 125 fold.

Turning to `COc1cc(Cc2cnc(N)nc2N)cc(OC)c1OC` [TMP, trimethoprim], in assay [4], the “self-activation after Dox withdrawal (mCitrine distribution)” value was “promoted self-activation in a dose-dependent manner”.

For 4-hydroxy-tamoxifen [4-OHT], the “additional increase in A expression by inducer compared with self-activation (Day 6 versus Day 18)” value in the assay on MultiFate-2.3 cells (4-OHT 25 nM) was 2.8 fold.

In the case of GCN4: GCN4 homodimerization domain, the inhibition of self-activation entry in assay [1] (42ZFR2AR39AR67A-GCN4-VP48-DHFR self-activation cells) is “did not have inhibitory effects”. Also, the Kd on homodimerization domain [5] was 0.01 to 0.02 µM.

As for `CC[C@H](C(=O)N1CCCC[C@H]1C(=O)O[C@H](CCc1ccc(OC)c(OC)c1)c1cccc(OCC(=O)NCCNC(=O)COc2cccc([C@@H](CCc3ccc(OC)c(OC)c3)OC(=O)[C@@H]3CCCCN3C(=O)[C@@H](CC)c3cc(OC)c(OC)c(OC)c3)c2)c1)c1cc(OC)c(OC)c(OC)c1` [AP1903], the “self-activation after Dox withdrawal (mCitrine distribution)” value in assay [4] was “bimodal distribution of mCitrine fluorescence”. For the same compound, in assay [3] (FKBP12F36V (FKBP) homodimerization domain instead of GCN4, BCRZFR39A), the “control of ZF transcription factor dimerization/activation by dimerization ligand” value is given as “dose-dependent control of dimerization”.
